# Experimental data from patent US8791108B2, “Inhibitors of human immunodeficiency virus replication” (priority 2011, dated 2014).
# Where two headings read alike, the source gives them in different places.
# Tested on: recombinant NL-Rluc virus
# Assay: Inhibition of HIV replication (NL-RLuc luciferase reporter virus, MT-2 cells)
# Type: cell-based
# Conditions: Human immunodeficiency virus 1, MT2, 120 h
compound,measurement,setting,value
"Cc1nc2cc(C(=O)N3CCC(c4ccc(F)cc4)CC3)nn2c(-c2cc(F)c3c(c2C)CCCO3)c1[C@H](OC(C)(C)C)C(=O)O (atropisomer, axis not shown) [Example 138, (S)-2-(tert-Butoxy)-2-((S)-7-(8-fluoro-5-methylchroman-6-yl)-2-(4-(4-fluorophenyl)piperidine-1-carbonyl)-5-methylpyrazolo[1,5-a]pyrimidin-6-yl)acetic acid]",EC50,read-out: Activity,< 0.1 µM
"Cc1cc(CNC(=O)c2cc3nc(C)c(C(OC(C)(C)C)C(=O)O)c(-c4cc(F)c5c(c4C)CCCO5)n3n2)ccc1F (stereo in doubt) [Example 3, (2S)-2-(tert-Butoxy)-2-(2-((4-fluoro-3-methylbenzyl)carbamoyl)-7-(8-fluoro-5-methylchroman-6-yl)-5-methylpyrazolo[1,5-a]pyrimidin-6-yl)acetic acid]",EC50,read-out: Activity,< 0.1 µM
same,EC50,read-out: EC50 μM,0.032 µM
"Cc1nc2cc(C(=O)NCc3ccc(F)cc3-n3ncnc3C)nn2c(-c2cc(F)c3c(c2C)CCCO3)c1C(OC(C)(C)C)C(=O)O (stereo in doubt) [Example 9, (2S)-2-(tert-butoxy)-2-(2-((4-fluoro-2-(5-methyl-1H-1,2,4-triazol-1-yl)benzyl)carbamoyl)-7-(8-fluoro-5-methylchroman-6-yl)-5-methylpyrazolo[1,5-a]pyrimidin-6-yl)acetic acid]",EC50,read-out: Activity,0.1 to 1 µM
"Cc1nc2cc(C(=O)NCc3ccc(F)cc3)nn2c(-c2cc(F)c3c(c2C)CCCO3)c1[C@H](OC(C)(C)C)C(=O)O [Example 1, (2S)-2-(tert-butoxy)-2-(7-(8-fluoro-5-methylchroman-6-yl)-2-((4-fluorobenzyl)carbamoyl)-5-methylpyrazolo[1,5-a]pyrimidin-6-yl)acetic acid]",EC50,read-out: Activity,< 0.1 µM
same,EC50,read-out: EC50 μM,0.053 µM
"Cc1nc2cc(C(=O)NCC3CCN(C(=O)C(C)C)CC3)nn2c(-c2cc(F)c3c(c2C)CCCO3)c1[C@H](OC(C)(C)C)C(=O)O [Example 2, (2S)-2-(tert-Butoxy)-2-(7-(8-fluoro-5-methylchroman-6-yl)-2-(((1-isobutyrylpiperidin-4-yl)methyl)carbamoyl)-5-methylpyrazolo[1,5-a]pyrimidin-6-yl)acetic acid]",EC50,read-out: Activity,> 1 µM
"Cc1nc2cc(C(=O)NCc3ccccc3)nn2c(-c2cc(F)c3c(c2C)CCCO3)c1[C@H](OC(C)(C)C)C(=O)O [Example 4, (2S)-2-(2-(Benzylcarbamoyl)-7-(8-fluoro-5-methylchroman-6-yl)-5-methylpyrazolo[1,5-a]pyrimidin-6-yl)-2-(tert-butoxy)acetic acid]",EC50,read-out: Activity,< 0.1 µM
"Cc1ccc(CNC(=O)c2cc3nc(C)c([C@H](OC(C)(C)C)C(=O)O)c(-c4cc(F)c5c(c4C)CCCO5)n3n2)cc1 [Example 5, (2S)-2-(tert-butoxy)-2-(7-(8-fluoro-5-methylchroman-6-yl)-5-methyl-2-((4-methylbenzyl)carbamoyl)pyrazolo[1,5-a]pyrimidin-6-yl)acetic acid]",EC50,read-out: Activity,< 0.1 µM
Cc1cccc(CNC(=O)c2cc3nc(C)c([C@H](OC(C)(C)C)C(=O)O)c(-c4cc(F)c5c(c4C)CCCO5)n3n2)c1 [Example 6],EC50,read-out: Activity,< 0.1 µM
"Cc1ccccc1CNC(=O)c1cc2nc(C)c([C@H](OC(C)(C)C)C(=O)O)c(-c3cc(F)c4c(c3C)CCCO4)n2n1 [Example 7, (2S)-2-(tert-butoxy)-2-(7-(8-fluoro-5-methylchroman-6-yl)-5-methyl-2-((2-methylbenzyl)carbamoyl)pyrazolo[1,5-a]pyrimidin-6-yl)acetic acid]",EC50,read-out: Activity,< 0.1 µM
"Cc1nc2cc(C(=O)N(C)Cc3ccc(F)cc3)nn2c(-c2cc(F)c3c(c2C)CCCO3)c1[C@H](OC(C)(C)C)C(=O)O [Example 8, (2S)-2-(tert-butoxy)-2-(7-(8-fluoro-5-methylchroman-6-yl)-2-((4-fluorobenzyl)(methyl)carbamoyl)-5-methylpyrazolo[1,5-a]pyrimidin-6-yl)acetic acid]",EC50,read-out: Activity,< 0.1 µM
"Cc1nc2cc(C(=O)NCc3ccc(F)cc3-n3nncc3C)nn2c(-c2cc(F)c3c(c2C)CCCO3)c1[C@H](OC(C)(C)C)C(=O)O [Example 10, (2S)-2-(tert-butoxy)-2-(2-((4-fluoro-2-(5-methyl-1H-1,2,3-triazol-1-yl)benzyl)carbamoyl)-7-(8-fluoro-5-methylchroman-6-yl)-5-methylpyrazolo[1,5-a]pyrimidin-6-yl)acetic acid]",EC50,read-out: Activity,0.1 to 1 µM
"Cc1nc2cc(C(=O)NCc3ccc(F)cc3-n3cncn3)nn2c(-c2cc(F)c3c(c2C)CCCO3)c1[C@H](OC(C)(C)C)C(=O)O [Example 11, (2S)-2-(tert-butoxy)-2-(2-((4-fluoro-2-(1H-1,2,4-triazol-1-yl)benzyl)carbamoyl)-7-(8-fluoro-5-methylchroman-6-yl)-5-methylpyrazolo[1,5-a]pyrimidin-6-yl)acetic acid]",EC50,read-out: Activity,0.1 to 1 µM
"Cc1nc2cc(C(=O)NCc3ccc(F)cc3N3CCCC3=O)nn2c(-c2cc(F)c3c(c2C)CCCO3)c1[C@H](OC(C)(C)C)C(=O)O [Example 12, (2S)-2-(tert-butoxy)-2-(2-((4-fluoro-2-(2-oxopyrrolidin-1-yl)benzyl)carbamoyl)-7-(8-fluoro-5-methylchroman-6-yl)-5-methylpyrazolo[1,5-a]pyrimidin-6-yl)acetic acid]",EC50,read-out: Activity,> 1 µM
"Cc1nc2cc(C(=O)NS(=O)(=O)c3ccccc3)nn2c(-c2cc(F)c3c(c2C)CCCO3)c1[C@H](OC(C)(C)C)C(=O)O [Example 13, (2S)-2-(tert-butoxy)-2-(7-(8-fluoro-5-methylchroman-6-yl)-5-methyl-2-((phenylsulfonyl)carbamoyl)pyrazolo[1,5-a]pyrimidin-6-yl)acetic acid]",EC50,read-out: Activity,> 1 µM
same,EC50,read-out: EC50 μM,40 µM
"Cc1nc2cc(C(=O)NS(=O)(=O)Cc3ccccc3)nn2c(-c2cc(F)c3c(c2C)CCCO3)c1[C@H](OC(C)(C)C)C(=O)O [Example 14, (2S)-2-(2-((benzylsulfonyl)carbamoyl)-7-(8-fluoro-5-methylchroman-6-yl)-5-methylpyrazolo[1,5-a]pyrimidin-6-yl)-2-(tert-butoxy)acetic acid]",EC50,read-out: Activity,> 1 µM
"Cc1ccc(NC(=O)c2cc3nc(C)c([C@H](OC(C)(C)C)C(=O)O)c(-c4cc(F)c5c(c4C)CCCO5)n3n2)cc1 [Example 15, (2S)-2-(tert-butoxy)-2-(7-(8-fluoro-5-methylchroman-6-yl)-5-methyl-2-(p-tolylcarbamoyl)pyrazolo[1,5-a]pyrimidin-6-yl)acetic acid]",EC50,read-out: Activity,< 0.1 µM
"Cc1nc2cc(C(=O)NCC3CCCCC3)nn2c(-c2cc(F)c3c(c2C)CCCO3)c1[C@H](OC(C)(C)C)C(=O)O [Example 16, (2S)-2-(tert-butoxy)-2-(2-((cyclohexylmethyl)carbamoyl)-7-(8-fluoro-5-methylchroman-6-yl)-5-methylpyrazolo[1,5-a]pyrimidin-6-yl)acetic acid]",EC50,read-out: Activity,< 0.1 µM
"CON(Cc1ccc(F)cc1)C(=O)c1cc2nc(C)c([C@H](OC(C)(C)C)C(=O)O)c(-c3cc(F)c4c(c3C)CCCO4)n2n1 [Example 17, (2S)-2-(tert-butoxy)-2-(7-(8-fluoro-5-methylchroman-6-yl)-2-((4-fluorobenzyl)(methoxy)carbamoyl)-5-methylpyrazolo[1,5-a]pyrimidin-6-yl)acetic acid]",EC50,read-out: Activity,< 0.1 µM
"Cc1nc2cc(C(=O)NCc3ccc(F)cc3-c3ncnn3C)nn2c(-c2cc(F)c3c(c2C)CCCO3)c1[C@H](OC(C)(C)C)C(=O)O [Example 18, (2S)-2-(tert-butoxy)-2-(2-((4-fluoro-2-(1-methyl-1H-1,2,4-triazol-5-yl)benzyl)carbamoyl)-7-(8-fluoro-5-methylchroman-6-yl)-5-methylpyrazolo[1,5-a]pyrimidin-6-yl)acetic acid]",EC50,read-out: Activity,0.1 to 1 µM
same,EC50,read-out: EC50 μM,0.547 µM
"Cc1ccccc1CN(C)C(=O)c1cc2nc(C)c([C@H](OC(C)(C)C)C(=O)O)c(-c3cc(F)c4c(c3C)CCCO4)n2n1 [Example 19, (2S)-2-(tert-butoxy)-2-(7-(8-fluoro-5-methylchroman-6-yl)-5-methyl-2-(methyl(2-methylbenzyl)carbamoyl)pyrazolo[1,5-a]pyrimidin-6-yl)acetic acid]",EC50,read-out: Activity,< 0.1 µM
"Cc1cccc(CN(C)C(=O)c2cc3nc(C)c([C@H](OC(C)(C)C)C(=O)O)c(-c4cc(F)c5c(c4C)CCCO5)n3n2)c1 [Example 20, (2S)-2-(tert-butoxy)-2-(7-(8-fluoro-5-methylchroman-6-yl)-5-methyl-2-(methyl(3-methylbenzyl)carbamoyl)pyrazolo[1,5-a]pyrimidin-6-yl)acetic acid]",EC50,read-out: Activity,< 0.1 µM
"CCc1ccc(CN(C)C(=O)c2cc3nc(C)c([C@H](OC(C)(C)C)C(=O)O)c(-c4cc(F)c5c(c4C)CCCO5)n3n2)cc1 [Example 21, (2S)-2-(tert-butoxy)-2-(2-((4-ethylbenzyl)(methyl)carbamoyl)-7-(8-fluoro-5-methylchroman-6-yl)-5-methylpyrazolo[1,5-a]pyrimidin-6-yl)acetic acid]",EC50,read-out: Activity,< 0.1 µM
"Cc1nc2cc(C(=O)N(C)Cc3ccccc3F)nn2c(-c2cc(F)c3c(c2C)CCCO3)c1[C@H](OC(C)(C)C)C(=O)O [Example 22, (2S)-2-(tert-butoxy)-2-(7-(8-fluoro-5-methylchroman-6-yl)-2-((2-fluorobenzyl)(methyl)carbamoyl)-5-methylpyrazolo[1,5-a]pyrimidin-6-yl)acetic acid]",EC50,read-out: Activity,< 0.1 µM
Cc1nc2cc(C(=O)N(C)Cc3cccc(F)c3)nn2c(-c2cc(F)c3c(c2C)CCCO3)c1[C@H](OC(C)(C)C)C(=O)O [Example 23],EC50,read-out: Activity,< 0.1 µM
"CCc1cc(CNC(=O)c2cc3nc(C)c([C@H](OC(C)(C)C)C(=O)O)c(-c4cc(F)c5c(c4C)CCCO5)n3n2)ccc1F [Example 24, (2S)-2-(tert-butoxy)-2-(2-((3-ethyl-4-fluorobenzyl)carbamoyl)-7-(8-fluoro-5-methylchroman-6-yl)-5-methylpyrazolo[1,5-a]pyrimidin-6-yl)acetic acid]",EC50,read-out: Activity,< 0.1 µM
"CCCc1cc(CNC(=O)c2cc3nc(C)c([C@H](OC(C)(C)C)C(=O)O)c(-c4cc(F)c5c(c4C)CCCO5)n3n2)ccc1F [Example 25, (2S)-2-(tert-butoxy)-2-(2-((4-fluoro-3-propylbenzyl)carbamoyl)-7-(8-fluoro-5-methylchroman-6-yl)-5-methylpyrazolo[1,5-a]pyrimidin-6-yl)acetic acid]",EC50,read-out: Activity,< 0.1 µM
Cc1nc2cc(C(=O)NCc3ccc(F)c(C4CC4)c3)nn2c(-c2cc(F)c3c(c2C)CCCO3)c1[C@H](OC(C)(C)C)C(=O)O [Example 26],EC50,read-out: Activity,< 0.1 µM
